# Measurements published in patent US20190021380A1 (priority 2014, published 2019).
# Counter-ions that a name gives are not always drawn. Like-named read-outs stand apart in the source and are kept apart here.
# Assays:
# T1R1/T1R3 receptor [1] = biological target: T1, T1R1/T1R3 receptor (Felis catus, UniProt E3UMS2); test: Example 8: agonist screening of transmembrane compounds on T1R1/T1R3 in HEK293 cells; assay type: cell-based, cat; conditions: transmembrane compound tested at 0.01, 0.1 and 1 mM; HEK293 cells expressing T1R1/T1R3; calcium dye and/or luminescent reporter
# Method: (§1) HEK293 cells that stably express T1R3 and inducibly express T1R1 were exposed to a transmembrane compound. Activation of the T1R1/T1R3 receptor was detected by a change in intracellular calcium levels using a calcium sensitive fluorescent dye and/or a luminescent reporter system. […] A FLIPR® Tetra or a FlexStation® 3 was used for data capture.
# Each transmembrane compound was tested at concentrations of 0.01 mM, 0.1 mM, and 1 mM. […] To generate the dose response curves, the transmembrane compound was tested at concentrations of between 0.0001 mM and 1.0 mM in the presence of GMP and Ala.
# T1R1/T1R3 receptor [2] = biological target: T1, T1R1/T1R3 receptor; test: Example 8: PAM screening of transmembrane compounds with GMP and Ala on T1R1/T1R3 in HEK293 cells; assay type: cell-based, cat; conditions: compound at 0.01, 0.1, 1 mM in combination with GMP+Ala mixtures (T1-T4); PAM if response to the combination is greater than the sum of the responses to compound alone and to GMP+Ala alone
# Description: as §1, with “to” for “to a”, “compound alone or in combination with Ala and GMP to activate the umami receptor.” for “compound.”
# Dose response curves were generated for each transmembrane compound at concentrations of 0 (buffer only), 0.01, 0.1 and 1 mM, wherein each of the three concentrations of transmembrane compound was tested in combination with 0.03 mM GMP+100 mM Ala (T1); 0.6 mM GMP+10 mM Ala (T2); 0.1 mM GMP+60 mM Ala (T3) and 0.3 mM GMP+60 mM Ala (T4). The T4 mixture was also tested in a 2-fold dilution series (the T4(X) Concentration). In these experiments, the first test concentration was 2× (2 times) the T4 concentration. The subsequent test concentrations were 2-fold dilutions from that (1×, 0.5× etc.). This dilution series was tested with or without the addition of the test compound at a constant 0.3 mM concentration.
# Activation of the umami receptor was also determined in the presence of 1 mM GMP+100 mM Ala to generate a “maximum” umami receptor activation level.
# T1R1/T1R3 receptor [3] = biological target: T1, T1R1/T1R3 receptor; assay type: cell-based; conditions: for EC50 +buffer (alone): compound alone in buffer
# Description: HEK293 cells that stably express T1R3 and inducibly express T1R1 were exposed to transmembrane compounds alone or in combination with one or more amino acids and/or one or more nucleotides to activate the umami receptor. Activation of the T1R1/T1R3 receptor was detected by a change in intracellular calcium levels using a calcium sensitive fluorescent dye. Cells that express T1R3 but not T1R1 were used as a control. A FLIPR® Tetra or a FlexStation® 3 was used for data capture.
# In each experiment, serial dilutions of up to 10 mM of the transmembrane compound were added to the T1R1/T1R3-expressing cells.
# [4] = threshold in the presence of 0.2 mM IMP, CNBD = Could not be determined
# [5] = in the presence of 0.2 mM IMP, CNBD = Could not be determined
structure (smiles),measurement,setting,value
"N#Cc1cccc(NC(=O)CN2C(=O)C(=O)N(Cc3ccccc3)C2=O)c1 [Formula 9, 2-(3-benzyl-2,4,5-trioxoimidazolidin-1-yl)-N-(3-cyanophenyl)acetamide]",T1R1/T1R3 agonist,T1R1/T1R3 receptor [1],No
same,T1R1/T1R3 PAM,T1R1/T1R3 receptor [2],No
"COc1ccccc1C(=O)CN1C(=O)C(=O)N(Cc2cccs2)C1=O [Formula 10, 1-(2-(2-methoxyphenyl)-2-oxoethyl)-3-(thiophen-2-ylmethyl)imidazolidine-2,4,5-trione]",T1R1/T1R3 agonist,T1R1/T1R3 receptor [1],No
same,T1R1/T1R3 PAM,T1R1/T1R3 receptor [2],No
"O=C(CN1C(=O)C(=O)N(CCc2cccs2)C1=O)c1cccc2ccccc12 [Formula 11, 1-(2-(naphthalen-1-yl)-2-oxoethyl)-3-(2-(thiophen-2-yl)ethyl)imidazolidine-2,4,5-trione]",T1R1/T1R3 agonist,T1R1/T1R3 receptor [1],No
same,T1R1/T1R3 PAM,T1R1/T1R3 receptor [2],No
"C[C@H](N)C(=O)O [L-Alanine, reference compound]",Thres +IMP (0.2 mM),T1R1/T1R3 receptor [3]; [4],3.0 mM
"N[C@@H](CS)C(=O)O [L-Cysteine, cysteine]",Max resp ΔF/F +IMP (0.2 mM),T1R1/T1R3 receptor [3]; [5],0.5800 ΔF/F
same,Thres +IMP (0.2 mM),T1R1/T1R3 receptor [3]; [4],10.0 mM
"N[C@@H](Cc1c[nH]cn1)C(=O)O [L-Histidine, L-histidine]",Thres +IMP (0.2 mM),T1R1/T1R3 receptor [3]; [4],10.0 mM
"N[C@@H](Cc1ccccc1)C(=O)O [L-Phenylalanine, reference compound]",Max resp ΔF/F +IMP (0.2 mM),T1R1/T1R3 receptor [3]; [5],0.5900 ΔF/F
same,Thres +IMP (0.2 mM),T1R1/T1R3 receptor [3]; [4],0.1 mM
"O=C(O)[C@@H]1CCCN1 [L-Proline, proline]",EC50 +IMP (0.2 mM),T1R1/T1R3 receptor [3],CNBD
same,Max resp % of Ala +IMP (0.2 mM),T1R1/T1R3 receptor [3],CNBD
same,Max resp ΔF/F +IMP (0.2 mM),T1R1/T1R3 receptor [3],CNBD
same,Thres +IMP (0.2 mM),T1R1/T1R3 receptor [3],CNBD
"N[C@@H](CO)C(=O)O [L-Serine, serine]",Thres +IMP (0.2 mM),T1R1/T1R3 receptor [3]; [4],3.0 mM
"N[C@@H](Cc1c[nH]c2ccccc12)C(=O)O [L-Tryptophan, tryptophan]",Thres +IMP (0.2 mM),T1R1/T1R3 receptor [3]; [4],0.1 mM
"N[C@@H](Cc1ccc(O)cc1)C(=O)O [L-Tyrosine, tyrosine]",Thres +IMP (0.2 mM),T1R1/T1R3 receptor [3]; [4],3.0 mM
"N[C@@H](CCC(=O)O)C(=O)[O-].[Na+] [MSG (Glutamic acid sodium salt), monosodium glutamate]",EC50 +IMP (0.2 mM),T1R1/T1R3 receptor [3]; [5],CNBD
same,Max resp ΔF/F +IMP (0.2 mM),T1R1/T1R3 receptor [3]; [5],CNBD
same,Max resp % of Ala +IMP (0.2 mM),"T1R1/T1R3 receptor [3]; in the presence of 0.2 mM IMP, relative to Ala, CNBD = Could not be determined",CNBD
same,Thres +IMP (0.2 mM),T1R1/T1R3 receptor [3]; [4],CNBD
"O=C(NCCCCNC(=O)c1cccnc1)c1cccnc1 [N,N′-(butane-1,4-diyl)dinicotinamide]",EC50 +Alanine (20 mM),T1R1/T1R3 receptor [3],CNBD
same,EC50 +buffer (alone),T1R1/T1R3 receptor [3]; CNBD = Could not be determined,CNBD
same,Thres +IMP (0.2 mM),T1R1/T1R3 receptor [3]; [4],0.1 mM
"O=C(NCCc1c[nH]c2ccccc12)c1cccnc1 [N-(2-(1H-indol-3-yl)ethyl)nicotinamide, N-(2-(1H-Indol-3-yl)ethyl)nicotinamide]",Thres +IMP (0.2 mM),T1R1/T1R3 receptor [3]; [4],0.003 mM
O=C(NCCc1ccccc1)c1ccccc1 [N-phenethylbenzamide],Max resp ΔF/F +IMP (0.2 mM),T1R1/T1R3 receptor [3]; [5],0.9800 ΔF/F
same,Thres +IMP (0.2 mM),T1R1/T1R3 receptor [3]; [4],0.01 mM
"O=C(NCCc1ccccc1)c1ccc2c(c1)OCO2 [N-phenethylbenzo[d][1,3]dioxole-5-carboxamide]",EC50 +Alanine (20 mM),T1R1/T1R3 receptor [3],CNBD
same,Thres +IMP (0.2 mM),T1R1/T1R3 receptor [3]; [4],0.01 mM
O=C(NCCc1ccccc1)c1cccnc1 [N-phenethylnicotinamide],Thres +IMP (0.2 mM),T1R1/T1R3 receptor [3]; [4],0.03 mM
"C=C[C@H]1C[N@@]2CC[C@H]1C[C@H]2[C@H](O)c1ccnc2ccc(OC)cc12 [Quinine HCL, reference compound]",EC50 +buffer (alone),T1R1/T1R3 receptor [3]; CNBD = Could not be determined,CNBD
"CCOC(=O)NC(=O)C(c1ccccc1)c1ccccc1 [Ro 01-6128, reference compound]",Thres +Alanine (20 mM),T1R1/T1R3 receptor [3],0.3 mM
same,Activity,T1R1/T1R3 receptor [3]; overall call for modulation of T1R1/T1R3: active or N/A (= Not active),active
same,Thres +IMP (0.2 mM),T1R1/T1R3 receptor [3]; [4],0.01 mM
